According to patent publication US20130274100A1, “Synergistic Fungicidal Active Substance Combinations” (priority 2005, published 2013):

Columns and labels:
[1] = tested on: Erysiphe graminis f.sp. tritici; test: Erysiphe test (wheat)/protective; assay type: in vivo; conditions: protective spray, application rate 62.5 g/ha, evaluation 7 days after inoculation
Text: The expected fungicidal action for a given combination of two active compounds can be calculated as follows, according to S. R. Colby (“Calculating Synergistic and Antagonistic Responses of Herbicide Combinations”, Weeds 1967, 15, 20-22): • X is the efficacy when employing active compound A at an application rate of m g/ha, • Y is the efficacy when employing active compound B at an application rate of n g/ha and • E is the efficacy when employing active compounds A and B at application rates of m and n g/ha, then Here, the efficacy is determined in %. 0% means an efficacy which corresponds to that of the control, whereas an efficacy of 100% means that no infection is observed. If the actual fungicidal action exceeds the calculated value, the action of the combination is superadditive, i.e. a synergistic effect is present. In this case, the actually observed efficacy must exceed the value calculated using the above formula for the expected efficacy (E). Erysiphe Test (Wheat)/Protective Solvent: 50 parts by weight of N,N-dimethylacetamide Emulsifier: 1 part by weight of alkylarylpolyglycol ether To produce a suitable preparation of active compound, 1 part by weight of active compound is mixed with the stated amounts of solvent and emulsifier or a commercial active compound formulation, and the concentrate is diluted with water to the desired concentration. To test for protective activity, young plants are sprayed with the preparation of active compound at the stated application rate. After the spray coating has dried on, the plants are dusted with spores of Erysiphe graminis f.sp. tritici. The plants are placed in a greenhouse at a temperature of about 20° C. and a relative atmospheric humidity of about 80% to promote the development of mildew pustules. Evaluation is carried out 7 days after the inoculation. 0% means an efficacy which corresponds to that of the control, whereas an efficacy of 100% means that no infection is observed.

[2] = tested on: Puccinia recondita; test: Puccinia test (wheat)/protective; assay type: in vivo; conditions: protective spray, evaluation 10 days after inoculation
Text: The expected fungicidal action for a given combination of two active compounds can be calculated as follows, according to S. R. Colby (“Calculating Synergistic and Antagonistic Responses of Herbicide Combinations”, Weeds 1967, 15, 20-22): • X is the efficacy when employing active compound A at an application rate of m g/ha, • Y is the efficacy when employing active compound B at an application rate of n g/ha and • E is the efficacy when employing active compounds A and B at application rates of m and n g/ha, then Here, the efficacy is determined in %. 0% means an efficacy which corresponds to that of the control, whereas an efficacy of 100% means that no infection is observed. If the actual fungicidal action exceeds the calculated value, the action of the combination is superadditive, i.e. a synergistic effect is present. In this case, the actually observed efficacy must exceed the value calculated using the above formula for the expected efficacy (E). Puccinia Test (Wheat)/Protective Solvent: 50 parts by weight of N,N-dimethylacetamide Emulsifier: 1 part by weight of alkylaryl polyglycol ether To produce a suitable preparation of active compound, 1 part by weight of active compound is mixed with the stated amounts of solvent and emulsifier or a commercial active compound formulation, and the concentrate is diluted with water to the desired concentration. To test for protective activity, young plants are sprayed with the preparation of active compound at the stated application rate. After the spray coating has dried on, the plants are sprayed with a conidia suspension of Puccinia recondita. The plants remain in an incubation cabin at 20° C. and 100% relative atmospheric humidity for 48 hours. The plants are then placed in a greenhouse at a temperature of about 20° C. and a relative atmospheric humidity of 80% to promote the development of rust postules. Evaluation is carried out 10 days after the inoculation. 0% means inefficacy which corresponds to that of the control, whereas an efficacy of 100% means that no infection is observed.

Row | SMILES | Efficacy in % found [1] | Efficacy in % found ([2]; application rate 125 g/ha) | Efficacy in % found ([2]; application rate 250 g/ha)
1 | CC(C)CC(C)c1sccc1NC(=O)c1cn(C)nc1C(F)(F)F (stereo not shown) [(1-1), N-[2-(1,3-dimethylbutyl)-3-thienyl]-1-methyl-3-(trifluoromethyl)-1H-pyrazole-4-carboxamide] | 0% | 33% | 67%
2 | CO/C=C(/C(=O)OC)c1ccccc1COc1cccc(C(F)(F)F)n1 [(2-9), Picoxystrobin] | 71% | – | 94%
3 | CCCC1COC(Cn2cncn2)(c2ccc(Cl)cc2Cl)O1 (stereo not shown) [(3-3), Propiconazole] | 29% | 56% | –
4 | CC(C1CC1)C(O)(Cn1cncn1)c1ccc(Cl)cc1 (stereo not shown) [(3-6), Cyproconazole] | 57% | 94% | –
5 | CCCCC(O)(Cn1cncn1)c1ccc(Cl)cc1Cl (stereo not shown) [(3-7), Hexaconazole] | 29% | 78% | –
6 | Cc1cc(C2CC2)nc(Nc2ccccc2)n1 [(9-1), Cyprodinil] | 0% | 0% | –
